Test results from patent publication US20230119833A1, “NMR METHODS FOR CHARACTERIZING IRON SUCROSE” (Amphastar Pharmaceuticals, Inc., priority 2020, published 2023).

Assay: 13C NMR peak width at half-height (PWHH) and relative PWHH of sucrose peaks, Example 1
Format: physicochemical
Conditions: for PWHH, three lots mean, Average: average of the twelve 13C peaks
Procedure: In Example 1, ^13C NMR was performed on three (3) samples (e.g 3 lots) of a comparator iron sucrose drug product having an equivalent concentration of 20 mg base/mL, and three (3) samples (e.g 3 lots) of a tested iron sucrose drug product having an equivalent concentration of 20 mg base/mL were analyzed by ^13C NMR in Example 1. The comparator product was Venofer® having an equivalent concentration of 20 mg base/mL. In addition, ^13C NMR was also performed on 3 samples (e.g. 3 lots) of free sucrose sample. Free sucrose is sucrose only with no iron.
The average PWHH of the 3 lots of the comparator iron sucrose drug product is identified as w in Tables 1 and 2. The average PWHH of the 3 lots of the tested iron sucrose drug productis identified as w in Tables 1 and 2. The average PWHH of the 3 lots of sucrose only sample is identified as w0 in Tables 1 and 2.
In addition to PWHH, a RPWHH is another characterization method disclosed herein. […] As provided in Table 1, the RPWHH averaged among the twelve (12) C peaks and the 3 lots for: (i) w1/wo is 8.5 f 1.0, and (ii) w2/wo is 7.9±1.1.

For `OC[C@H]1O[C@@](CO)(O[C@H]2O[C@H](CO)[C@@H](O)[C@H](O)[C@H]2O)[C@@H](O)[C@@H]1O` [Sucrose Only, sucrose], which “PWHH, three lots mean” value (13C Peak No. 1, 106.0 ppm, Fructose, Carbon Atom No. 8) is on record?
Its value is 10.6 ppb.

What about the “PWHH, three lots mean” value (13C Peak No. 2, 95.0 ppm, Glucose, Carbon Atom No. 1) of the same molecule?
The value was 14.7 ppb.

What about the “PWHH, three lots mean” value (13C Peak No. 3, 84.0 ppm, Fructose, Carbon Atom No. 11) of the same molecule?
The value was 13.4 ppb.

And the “PWHH, three lots mean” value (13C Peak No. 4, 79.0 ppm, Fructose, Carbon Atom No. 9)?
Its value is 16.3 ppb.

And the “PWHH, three lots mean” value (13C Peak No. 5, 76.0 ppm, Fructose, Carbon Atom No. 10)?
Its value is 15.8 ppb.

And the “PWHH, three lots mean” value (13C Peak No. 6, 75.4 ppm, Glucose, Carbon Atom No. 3)?
The value was 14.3 ppb.

And the “PWHH, three lots mean” value (13C Peak No. 7, 75.2 ppm, Glucose, Carbon Atom No. 5)?
Its value is 14.9 ppb.

What about the “PWHH, three lots mean” value (13C Peak No. 8, 73.9 ppm, Glucose, Carbon Atom No. 2) of the same molecule?
Its value is 15.7 ppb.

And the “PWHH, three lots mean” value (13C Peak No. 9, 72.0 ppm, Glucose, Carbon Atom No. 4)?
Its value is 13.7 ppb.

What about the “PWHH, three lots mean” value (13C Peak No. 10, 65.2 ppm, Fructose, Carbon Atom No. 7) of the same molecule?
Its value is 16.2 ppb.

And the “PWHH, three lots mean” value (13C Peak No. 11, 64.1 ppm, Fructose, Carbon Atom No. 12)?
The value was 17.6 ppb.

What about the “PWHH, three lots mean” value (13C Peak No. 12, 62.9 ppm, Glucose, Carbon Atom No. 6) of the same molecule?
The value was 17.2 ppb.

What about the “PWHH, three lots mean, Average” value of the same molecule?
Its value is 15.0 ppb.

And the “PWHH, three lots mean, Average” value (listed as w0)?
Its value is 15±2 ppb.
